Measured values taken from US20180369268A1, “METHODS FOR IDENTIFYING INHIBITORS OF "STIMULATOR OF INTERFERON GENE"- DEPENDENT INTERFERON PRODUCTION” (ADURO BIOTECH, INC., priority 2015, published 2018).
Like-named read-outs stand apart in the source and are kept apart here.

Assays:
[1] = target: T1, STING in THP1 cells (HAQ allele) (Homo sapiens, UniProt Q86WV6, G230A/H232R/R293Q/R71H); experiment: THP-1 competition assay with STING agonist 2′3′-RR-(A)(A) (IRF-3 luciferase reporter); assay type: cell-based
T1 construct: host or cells: THP-1 dual reporter cells
Method: The scaffold molecules and STING inhibitory compounds as described herein are assayed for their ability to inhibit the induction of STING dependent IFN-β production by an agonist compound in a competition assay. Relative induction of IRF-3 signaling in THP-1 cells (HAQ allele) was measured after stimulating the cells with a mix of a scaffold molecule (or any putative STING antagonist) titrated against a constant concentration of the STING agonist 2′3′-RR-(A)(A) in PB buffer (50 mM HEPES pH 7.5, 100 mM KCl, 3 mM MgCl2, 0.1 mM DTT, 85 mM sucrose, 0.2% BSA, 1 mM ATP, 0.1 mM GTP).
One day prior to performing the assay, THP-1 dual (Invivogen) reporter cells were plated at 500,000 cells/mL in 200 μL per well in a 96-well plate and differentiated overnight with 3 μg/mL phorbal myristate acetate in RPMI medium 1640 (4.5 g/L D-glucose, 2.383 g/L HEPES, 300 mg/L L-glutamine, 1.5 g/L sodium bicarbonate, 110 mg/L sodium pyruvate, 10% heat-inactivated fetal bovine serum, 1× penicillin/streptomycin, 0.1 mg/mL normocin).
On the day of the assay, the media was removed from the wells and replaced with 150 μL of fresh media. The titrations against 2′ 3′-RR-(A)(A) in a final volume of 100 μL were made as follows: two-fold dilutions (2,000 μM-3.9 μM) of the scaffold molecule into PB buffer containing 100 μM 2′3′-RR-(A)(A) for a final concentration of 50 μM 2′3′-RR-(A)(A). Compounds were tested in biological triplicate.
The cells were then stimulated with 25 μL of each titration for 30 minutes at 37° C. in a CO2 incubator. After stimulating, the cells were washed twice, first with 100 μL and then 150 μL of fresh media. After washing, 150 μL of media was added to each well and the cells were incubated for 17 hours overnight at 37° C. in a CO2 incubator.
To detect IRF-3 signaling, 50 μL of luciferase substrate (Invivogen QUANTI-Luc coelenterazine-based luminescence reagent reconstituted in 25 mL water) was added to 10 μL of supernatant from each well in a 96-well white opaque plate. Luminescence was measured using a SpectraMax M3 plate reader (Molecular Devices) and relative fold-induction was calculated as the values obtained from wells containing both the scaffold molecule and 2′3′-RR-(A)(A) divided by the values obtained from wells containing 2′3′-RR-(A)(A) alone. The average of the relative fold-induction was plotted against the log concentration of the antagonist. Agonist compounds 2′3′-RR-(G)(A) and RR-(A)(A) were run as controls in this assay (see FIGS. 2A and 2B).
The results are provided for control compounds in FIGS. 2A and 2B and scaffold molecules in FIGS. […]: 2′3′-SR-(3′OTBS-A)(2′F-A) (FIG. 3A, Comp. 6a), SR-(2′F-A)(2′OTBS-A) (FIG. 3B, Comp. 18a), RR-(2,6-DAP)(2,6-DAP) (FIG. 3C, Comp. 23), RS-(2,6-DAP)(2,6-DAP) (FIG. 3D, Comp. 23a), (6-O-propargyl-G)(G) (FIG. 3E, Comp. 25), RR-(2′F-ibG)(2′F-ibG) (FIG. 3F, Comp. 32), RR-(2′F-C)(2′F-A) (FIG. 3G, Comp. 37), RS-(2′F-C)(2′F-A) (FIG. 3H, Comp. 37a), 3′2′-RR-(ibG)(BzA) (FIG. 3I, Comp. 42), 3′2′-SS-(G)(A) (FIG. 3J, Comp. 43), dithio-3′2′-(2′OTBS-G)(3′OTBS-A) isomer 1 (FIG. 3K, Comp. 49, isomer 1), dithio-3′2′-(2′OTBS-G)(3′OTBS-A) isomer 2 (FIG. 3L, Comp. 49, isomer 2), Beta-L-SS-(A)(A) (FIG. 3M, Comp. 48), Beta-L-RS-(A)(A) (FIG. 3N, Comp. 48a), and Beta-L-RR-(A)(A) (FIG. 3O, Comp. 48b). Isomer 1 and 2 of Compound 49 are different isomers, and are each one of compound 49a, 49b, 49c or 49d.

[2] = target: T2, hSTING HAQ allele (Homo sapiens, UniProt Q86WV6, G230A/H232R/R293Q); experiment: Differential scanning fluorometry (DSF) Tm shift with purified STING AA140-379; assay type: binding; settings: read-out: hSTING Tm Shift HAQ
T2 construct: DNA encoding amino acids 140-379 (amino acid numbering corresponding to Swiss Prot Q86WV6); 6xHIS-SUMO (with TEV site) (N, cleaved yes); made in house; host or cells: Rosetta2 (DE3) E. coli
Text: DNA encoding amino acids 140-379 (amino acid numbering corresponding to Swiss Prot Q86WV6) was amplified from plasmids containing the full length sequence of human STING alleles via polymerase chain reaction with the following primers: forward […] (SEQ ID NO: 9) and reverse […] (SEQ ID NO: 10). STING variant alleles were assigned according to Yi, et al, (2013), PLoS One, 8(10), e77846 (DOI: 10.1371/journal.pone.0077846. PCR products were cloned into bacterial expression vector encoding a N-terminal hexa-histidine affinity tag (6×HIS) followed by a small ubiquitin-like modifier (SUMO) solubility sequence (Butt, et al, (2005) Protein expression and purification 43.1, 1-9) and tobacco etch virus protease cleavage site (TEV) using ligation independent cloning (Aslanidis, et al, (1990) Nucleic acids research, 18.20, 6069-6074).
Plasmids encoding 6×HIS-SUMO-TEV-STING amino acids 140-379 were transformed into Rosetta2 (DE3) E. coli cells (EMD Millipore) for protein expression. Cells were grown in lysogeny broth at 37° C. until a […] absorbance of 0.6 was reached. Cells were then transferred to 18° C. and protein expression was induced overnight by the addition of isopropyl β-D-1-thiogalactopyranoside to the media at a concentration of 0.25 mM. Cells were harvested by centrifugation at 6,000 times gravity for 10 minutes. Cell pellets were re-suspended on ice in a buffer containing 50 mM Tris hydrochloride (Tris-HCl) pH 7.5, 500 mM sodium chloride (NaCl), 20 mM imidazole, 10% glycerol, 1 mM tris(2-carboxyethyl)phosphine hydrochloride (TCEP) and protease inhibitor tablet (Pierce) (Buffer A). Cells were lysed using an S-450D sonifier (Emmerson industrial) on ice. Cell lysate was centrifuged at 15,000 times gravity for 30 minutes at 4° C. Soluble material was applied to nickel-nitrilotriacetic acid (Ni-NTA) coupled Sepharose CL-6B (Qiagen) for 1 hour with gentle rocking at 4° C. After transfer to a gravity flow poly-prep column (Bio-Rad), resin was washed extensively in buffer A. Protein was eluted from the column in a buffer containing 20 mM Tris-HCl pH 7.5, 150 mM NaCl, 300 mM imidazole, 10% glycerol and 0.5 mM TCEP. To remove the 6×HIS-SUMO tag eluted protein was mixed with TEV protease (Sigma) at a ratio of 1:250 (w:w) and dialyzed overnight against a buffer containing 20 mM Tris-HCl pH 7.5, 150 mM NaCl, 5 mM imidazole, 10% glycerol and 0.5 mM TCEP. TEV protease and 6×HIS-SUMO tags were depleted by the addition of Ni-NTA resin (Qiagen) to the sample, purified STING amino acids 140-379 was collected by removal of the resin using a poly-prep column STING AA140-379 was concentrated with a 10,000 Dalton molecular weight cutoff centrifuge concentrator (EMD Millipore) to a final concentration of approximately 10 mg/ml. Protein was aliquoted, flash frozen in liquid nitrogen and stored at −80° C. until use.
Differential scanning fluorometry (DSF) is a technique that measures the ability of ligands to bind to and stabilize purified proteins (Niesen, et al, (2007) Nature protocols 2.9, 2212-2221). The protein is heated in the presence of a dye that binds to and fluoresces in hydrophobic environments. The protein is thermally denatured by heating resulting in increased dye binding to the unfolded protein and fluorescence. The temperature midpoint (Tm) of a proteins denaturation is established by calculating the half maximal value of the denaturation curve. The temperature midpoint of the protein in the presence of a ligand is directly related to the affinity of the ligand for the protein and therefore its ability to stabilize the protein at higher temperatures.
DSF was performed in a 20 μL reaction comprising 20 mM Tris-HCl pH 7.5, 150 mM NaCl, 1:500 dilution of SYPRO Orange (Life Technologies), 1 mg/ml purified STING AA140-379 protein and ligand at a concentration of 1 mM. Wild type hSTING, HAQ allele hSTING and/or REF allele hSTING were used with scaffold molecules of the invention as listed in Table 2.

[3] = DSF, ligand 1 mM, 1 mg/ml STING AA140-379

T2 sequence (Q86WV6 140-379 G230A/H232R/R293Q): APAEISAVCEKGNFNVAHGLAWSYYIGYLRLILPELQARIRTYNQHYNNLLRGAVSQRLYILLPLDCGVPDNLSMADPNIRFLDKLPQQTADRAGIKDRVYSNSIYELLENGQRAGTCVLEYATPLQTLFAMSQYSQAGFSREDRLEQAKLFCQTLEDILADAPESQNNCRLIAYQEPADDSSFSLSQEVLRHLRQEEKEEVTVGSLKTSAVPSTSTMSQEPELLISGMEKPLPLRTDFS
T1 sequence (Q86WV6 whole entry R71H/G230A/H232R/R293Q): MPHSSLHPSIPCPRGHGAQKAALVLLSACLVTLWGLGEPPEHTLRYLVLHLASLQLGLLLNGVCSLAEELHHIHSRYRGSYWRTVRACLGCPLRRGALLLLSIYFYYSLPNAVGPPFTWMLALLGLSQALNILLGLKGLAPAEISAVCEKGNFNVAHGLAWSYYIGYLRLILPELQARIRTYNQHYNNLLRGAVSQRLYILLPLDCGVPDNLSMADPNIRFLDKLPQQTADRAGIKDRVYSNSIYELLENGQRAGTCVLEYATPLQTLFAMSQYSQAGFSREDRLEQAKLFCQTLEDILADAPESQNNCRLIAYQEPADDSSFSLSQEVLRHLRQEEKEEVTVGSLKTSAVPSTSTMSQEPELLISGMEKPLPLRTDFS

ΔTm at 1000 µM [2, 3]	Compound	IC50 [1]	ΔTm at 1000 µM [2]
–	CC(C)(C)[Si](C)(C)O[C@@H]1[C@@H]2OP(=O)(S)OC[C@H]3O[C@@H](n4cnc5c(N)ncnc54)[C@H](OP(=O)(S)OC[C@H]2O[C@H]1n1cnc2c(=O)[nH]c(N)nc21)[C@@H]3O[Si](C)(C)C(C)(C)C (single isomer, unassigned) [compound 49 isomer 1, dithio-3′2′-(2′OTBS-G)(3′OTBS-A) isomer 1]	109 µM	–
–	CC(C)(C)[Si](C)(C)O[C@@H]1[C@@H]2OP(=O)(S)OC[C@H]3O[C@@H](n4cnc5c(N)ncnc54)[C@H](OP(=O)(S)OC[C@H]2O[C@H]1n1cnc2c(=O)[nH]c(N)nc21)[C@@H]3O[Si](C)(C)C(C)(C)C (single isomer, unassigned) [compound 49 isomer 2, dithio-3′2′-(2′OTBS-G)(3′OTBS-A) isomer 2]	420 µM	–
–	CC(C)(C)[Si](C)(C)O[C@H]1[C@H]2O[P@](=O)(S)OC[C@H]3O[C@@H](n4cnc5c(N)ncnc54)[C@H](F)[C@@H]3O[P@](=O)(S)OC[C@H]1O[C@H]2n1cnc2c(N)ncnc21 [Compound 6, dithio-[RP, RP]-cyclic-[3′OTBS-A(2′,5′)p-2′F-A(3′,5′)p]]	–	18.1 °C
–	CC(C)(C)[Si](C)(C)O[C@H]1[C@H]2O[P@](=O)(S)OC[C@H]3O[C@@H](n4cnc5c(N)nc(N)nc54)[C@H](O)[C@@H]3O[P@](=O)(S)OC[C@H]1O[C@H]2n1cnc2c(N)ncnc21 [Compound 12, dithio-[RP, RP]-cyclic-[A(2′,5′)p-2,6-DAP(3′,5′)p]]	–	14.3 °C
–	CC(C)(C)[Si](C)(C)O[C@H]1[C@H]2O[P@@](=O)(S)OC[C@H]3O[C@@H](n4cnc5c(N)nc(N)nc54)[C@H](O)[C@@H]3O[P@](=O)(S)OC[C@H]1O[C@H]2n1cnc2c(N)ncnc21 [Compound 12a, dithio-[SP, RP]-cyclic-[A(2′,5′)p-2,6-DAP(3′,5′)p]]	–	14.5 °C
–	CC(C)(C)[Si](C)(C)O[C@@H]1[C@@H]2O[P@](=O)(S)OC[C@H]3O[C@@H](n4cnc5c(N)ncnc54)[C@H](F)[C@@H]3O[P@@](=O)(S)OC[C@H]2O[C@H]1n1cnc2c(N)ncnc21 [Compound 18a, (2R,3R,3aR,5R,7aR,9R,10R,10aR,12S,14aR)-2,9-bis(6-amino-9H-purin-9-yl)-3-((tert-butyldimethylsilyl)oxy)-10-fluoro-5,12-dimercaptooctahydro-2H,7H-difuro[3,2-d:3′,2′-j][1,3,7,9]tetraoxa[2,8]diphosphacyclododecine 5,12-dioxide]	2110 µM	–
9.9 °C	CC(C)C(=O)Nc1nc2c(ncn2[C@@H]2O[C@@H]3CO[P@@](=O)(S)O[C@H]4[C@@H](F)[C@H](n5cnc6c(=O)[nH]c(NC(=O)C(C)C)nc65)O[C@@H]4CO[P@](=O)(S)O[C@H]3[C@H]2F)c(=O)[nH]1 [Compound 32a, N,N′-(((2R,3R,3aR,5R,7aR,9R,10R,10aR,12S,14aR)-3,10-difluoro-5,12-dimercapto-5,12-dioxidooctahydro-2H,7H-difuro[3,2-d:3′,2′-j][1,3,7,9]tetraoxa[2,8]diphosphacyclododecine-2,9-diyl)bis(6-oxo-6,9-dihydro-1H-purine-9,2-diyl))bis(2-methylpropanamide)]	–	–
4.2 °C	CC(C)C(=O)Nc1nc2c(ncn2[C@@H]2O[C@@H]3CO[P@](=O)(S)O[C@@H]4[C@H](O)[C@@H](CO[P@@](=O)(S)O[C@H]3[C@H]2O)O[C@H]4n2cnc3c(NC(=O)c4ccccc4)ncnc32)c(=O)[nH]1 [Compound 42a, dithio-[RP, SP]-cyclic-[ibG(3′,5′)p-BzA(2′,5′)p]]	–	–
5.4 °C	C#CCOc1nc(N)nc2c1ncn2[C@@H]1O[C@@H]2COP(=O)(O)O[C@H]3[C@@H](O)[C@H](n4cnc5c(OCC#C)nc(N)nc54)O[C@@H]3COP(=O)(O)O[C@H]2[C@H]1O [compound 26, (2R,3R,3aS,7aR,9R,10R,10aS,14aR)-2,9-bis(2-amino-6-(prop-2-yn-1-yloxy)-9H-purin-9-yl)-3,5,10,12-tetrahydroxyoctahydro-2H,7H-difuro[3,2-d: 3′,2′-j][1,3,7,9]tetraoxa[2,8]diphosphacyclododecine 5,12-dioxide]	–	–
